Literature values as cited in EP0084011B1, “Quinoline carboxylic acid complexes with guanidinium carbonate and guanidine” (Merck & Co., Inc., priority 1982, dated 1983).
Converted amounts (≈) assume the structure as drawn.

CCn1cc(C(=O)O)c(=O)c2cc(F)c(N3CCNCC3)cc21 [Parent, 1-ethyl-6-fluoro-1,4-dihydro-4-oxo-7-(1-piperazinyl)-3-quinoline carboxylic acid]
Solubility (in water, 25 °C, reported water solubility of the parent compound): 200 µg/mL (≈ 626 µM) | water solubility (pH range of 6-10, background statement): very low water solubility
